Assays:
[1] = biological target: T1, KRas-mediated phosphorylation of ERK in MKN1 cells (Homo sapiens, UniProt P01116); test: Inhibition of KRas-mediated phosphorylation of ERK (HTRF), MKN1 cells; assay type: cell-based; conditions: MKN1 cells (KRas WT); HTRF pERK; 3 h incubation
T1 construct: pERK HTRF read-out
Method: Inhibition of KRas Phosphorylation of ERK (HTRF) by Exemplary Compounds of Formula (Ia) or (Ib)
Cisbio HTRF Advanced pERK Assay Catalog #64AERPEH • Cells: MKN1, PSN1 • Procedure: • 1. Day 1: Seed 6,000 cells/well −25 μl/well in 384-well white solid bottom plate; RPM1_10% FBS. Incubate overnight at 37 °C/5% CO2. • 2.

KRas G12C = biological target: T2, KRas G12C (Homo sapiens, UniProt P01116, G12C); test: KRas binding assay, TR-FRET displacement of Cy5 labelled tracer; conditions: 60-minute incubation at room temperature, 1% DMSO, pH 7.5
T2 construct: Biotinylated KRas (corresponding to amino acids 1-169, produced at Accelegan Inc.); biotin (biotinylated); purchased Accelegan Inc
How it was run: (§1)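 Tb-streptavidin captured biotinylated KRas (1-169) in HEPES 50 mM, DTT 1 mM, MgCl2 5 mM, Tween-20 0.005% (pH 7.5), alongside tracer and compound at 1% final DMSO. One hour at RT, then read; IC50 from 4-parameter POC fit.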

KRas G12S = biological target: T3, KRas G12S (Homo sapiens, UniProt P01116, G12S); test: as above; conditions: 60-minute incubation at room temperature, 1% DMSO, pH 7.5
T3 construct: Biotinylated KRas (corresponding to amino acids 1-169, produced at Accelegan Inc.); biotin (biotinylated); purchased Accelegan Inc
How it was run: as §1

KRas WT = biological target: T4, KRas WT (Homo sapiens, UniProt P01116); test: as above; conditions: 60-minute incubation at room temperature, 1% DMSO, pH 7.5
T4 construct: Biotinylated KRas (corresponding to amino acids 1-169, produced at Accelegan Inc.); biotin (biotinylated); purchased Accelegan Inc
How it was run: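 TR-FRET tracer-displacement readout after 60 min at room temperature, using KRas residues 1-169 (biotinylated) with terbium streptavidin and a Cy5 tracer. Buffer: 50 mM HEPES pH 7.5, 5 mM MgCl2, 0.005% Tween-20, 1 mM DTT, 1% DMSO final. IC50 from 4-parameter fit of POC data.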

[2] = biological target: T5, KRas-mediated phosphorylation of ERK in A549 cells (Homo sapiens, UniProt P01116, G12S); test: Inhibition of KRas-mediated phosphorylation of ERK (HTRF), A549 cells; assay type: cell-based; conditions: HTRF pERK, 3 h incubation
T5 construct: pERK HTRF read-out
T5 sequence (P01116 1-188 isoform P01116-2 G12S): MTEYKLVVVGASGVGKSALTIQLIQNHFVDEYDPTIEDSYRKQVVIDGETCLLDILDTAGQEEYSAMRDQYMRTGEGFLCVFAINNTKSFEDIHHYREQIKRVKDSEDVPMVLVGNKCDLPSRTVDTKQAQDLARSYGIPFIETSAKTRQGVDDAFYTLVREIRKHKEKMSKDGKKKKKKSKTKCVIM

T4 sequence (P01116 1-169 isoform P01116-2): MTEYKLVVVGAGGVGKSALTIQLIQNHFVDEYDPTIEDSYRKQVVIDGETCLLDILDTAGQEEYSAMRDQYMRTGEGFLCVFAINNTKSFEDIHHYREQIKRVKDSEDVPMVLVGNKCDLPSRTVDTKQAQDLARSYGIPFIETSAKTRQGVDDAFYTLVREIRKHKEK
T2 sequence (P01116 1-169 isoform P01116-2 G12C): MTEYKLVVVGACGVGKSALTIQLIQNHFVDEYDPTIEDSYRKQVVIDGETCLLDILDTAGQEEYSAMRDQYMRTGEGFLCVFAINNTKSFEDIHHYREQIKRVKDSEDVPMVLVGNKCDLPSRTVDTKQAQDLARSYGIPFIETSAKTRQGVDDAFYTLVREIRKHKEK
T3 sequence (P01116 1-169 isoform P01116-2 G12S): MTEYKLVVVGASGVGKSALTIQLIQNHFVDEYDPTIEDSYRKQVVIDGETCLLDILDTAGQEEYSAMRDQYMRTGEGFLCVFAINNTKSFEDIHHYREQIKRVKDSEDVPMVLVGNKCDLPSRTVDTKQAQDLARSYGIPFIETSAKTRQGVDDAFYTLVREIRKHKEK
T1 sequence (P01116 1-188 isoform P01116-2): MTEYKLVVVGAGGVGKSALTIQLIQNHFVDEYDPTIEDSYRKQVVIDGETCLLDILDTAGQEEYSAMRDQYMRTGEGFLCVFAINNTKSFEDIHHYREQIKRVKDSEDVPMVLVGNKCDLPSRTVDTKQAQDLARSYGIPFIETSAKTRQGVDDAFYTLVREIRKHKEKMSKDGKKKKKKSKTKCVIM

Structure (SMILES) | IC50 [1] [nM] | IC50 (KRas G12C) [nM] | IC50 (KRas G12S) [nM] | IC50 (KRas WT) [nM] | IC50 [2] [nM]
CCc1c(F)ccc2cc(O)cc(-c3ncc4c(NC[C@@H]5C[C@@H]5C(=O)n5ccc(C)n5)nc(OC[C@@]56CCCN5C[C@H](F)C6)nc4c3F)c12 [Example 103, ((1S,2R)-2-(((7-(8-ethyl-7-fluoro-3-hydroxynaphthalen-1-yl)-8-fluoro-2-(((2R,7aS)-2-fluorotetrahydro-1H-pyrrolizin-7a(5H)-yl)methoxy)pyrido[4,3-d]pyrimidin-4-yl)amino)methyl)cyclopropyl)(3-methyl-1H-pyrazol-1-yl)methanone] | 351 | 37 | 35 | 34 | 167
CCc1c(F)ccc2cc(O)cc(-c3ncc4c(N5CC6CCC(C(=O)n7ccc(C)n7)(C6)C5)nc(OC[C@@]56CCCN5C[C@H](F)C6)nc4c3F)c12 (stereo partly drawn) [Example 106, (3-(7-(8-ethyl-7-fluoro-3-hydroxynaphthalen-1-yl)-8-fluoro-2-(((2R,7aS)-2-fluorotetrahydro-1H-pyrrolizin-7a(5H)-yl)methoxy)pyrido[4,3-d]pyrimidin-4-yl)-3-azabicyclo[3.2.1]octan-1-yl)(3-methyl-1H-pyrazol-1-yl)methanone] | 529 | 22 | 14 | 40 | 584
C=CC1(C(=O)n2ccc(C)n2)CCN(c2nc(OC[C@@]34CCCN3C[C@H](F)C4)nc3c(F)c(-c4cc(O)cc5ccc(F)c(CC)c45)ncc23)C1 (stereo partly drawn) [Example 107, (1-(7-(8-ethyl-7-fluoro-3-hydroxynaphthalen-1-yl)-8-fluoro-2-(((2R,7aS)-2-fluorotetrahydro-1H-pyrrolizin-7a(5H)-yl)methoxy)pyrido[4,3-d]pyrimidin-4-yl)-3-vinylpyrrolidin-3-yl)(3-methyl-1H-pyrazol-1-yl)methanone] | > 10000 | 37 | 513 | 1060 | 2070
CCc1c(F)ccc2cc(O)cc(-c3ncc4c(NC[C@@H]5[C@H](C(=O)n6ccc(C)n6)C5(C)C)nc(OC[C@@]56CCCN5C[C@H](F)C6)nc4c3F)c12 [Example 109, ((1S,3R)-3-(((7-(8-ethyl-7-fluoro-3-hydroxynaphthalen-1-yl)-8-fluoro-2-(((2R,7aS)-2-fluorotetrahydro-1H-pyrrolizin-7a(5H)-yl)methoxy)pyrido[4,3-d]pyrimidin-4-yl)amino)methyl)-2,2-dimethylcyclopropyl)(3-methyl-1H-pyrazol-1-yl)methanone] | 316 | 134 | 99 | 73 | 1920
CCc1c(F)ccc2cc(O)cc(-c3ncc4c(NC[C@@H]5C[C@H]5C(=O)n5ccc(C)n5)nc(OC[C@@]56CCCN5C[C@H](F)C6)nc4c3F)c12 [Example 112, ((1R,2R)-2-(((7-(8-ethyl-7-fluoro-3-hydroxynaphthalen-1-yl)-8-fluoro-2-(((2R,7aS)-2-fluorotetrahydro-1H-pyrrolizin-7a(5H)-yl)methoxy)pyrido[4,3-d]pyrimidin-4-yl)amino)methyl)cyclopropyl)(3-methyl-1H-pyrazol-1-yl)methanone] | 80 | 11 | 9 | 19 | 15

More lines, now with the values ahead:

IC50 [1] [nM] | IC50 (KRas G12C) [nM] | IC50 (KRas G12S) [nM] | IC50 (KRas WT) [nM] | IC50 [2] [nM] | Structure (SMILES)
931 | 295 | 176 | 77 | 1580 | CCc1c(F)ccc2cc(O)cc(-c3ncc4c(N5CC6CCC(C(=O)n7ccc(C)n7)C6C5)nc(OC[C@@]56CCCN5C[C@H](F)C6)nc4c3F)c12 (stereo partly drawn) [Example 104, (2-(7-(8-ethyl-7-fluoro-3-hydroxynaphthalen-1-yl)-8-fluoro-2-(((2R,7aS)-2-fluorotetrahydro-1H-pyrrolizin-7a(5H)-yl)methoxy)pyrido[4,3-d]pyrimidin-4-yl)octahydrocyclopenta[c]pyrrol-4-yl)(3-methyl-1H-pyrazol-1-yl)methanone]
517 | 35 | 50 | 58 | > 10000 | CCc1c(F)ccc2cc(O)cc(-c3ncc4c(N5C[C@H]6CC[C@@]6(C(=O)n6ccc(C)n6)C5)nc(OC[C@@]56CCCN5C[C@H](F)C6)nc4c3F)c12 [Example 105, ((1S,5S)-3-(7-(8-ethyl-7-fluoro-3-hydroxynaphthalen-1-yl)-8-fluoro-2-(((2R,7aS)-2-fluorotetrahydro-1H-pyrrolizin-7a(5H)-yl)methoxy)pyrido[4,3-d]pyrimidin-4-yl)-3-azabicyclo[3.2.0]heptan-1-yl)(3-methyl-1H-pyrazol-1-yl)methanone]
> 10000 | 339 | 1320 | 1040 | 2000 | C#CCC1(C(=O)n2ccc(C)n2)CCN(c2nc(OC[C@@]34CCCN3C[C@H](F)C4)nc3c(F)c(-c4cc(O)cc5ccc(F)c(CC)c45)ncc23)C1 (stereo partly drawn) [Example 108, (1-(7-(8-ethyl-7-fluoro-3-hydroxynaphthalen-1-yl)-8-fluoro-2-(((2R,7aS)-2-fluorotetrahydro-1H-pyrrolizin-7a(5H)-yl)methoxy)pyrido[4,3-d]pyrimidin-4-yl)-3-(prop-2-yn-1-yl)pyrrolidin-3-yl)(3-methyl-1H-pyrazol-1-yl)methanone]
219 | < 2 | 3 | 13 | 16 | CCc1c(F)ccc2cc(O)cc(-c3ncc4c(NCCCC(=O)n5ccc(C)n5)nc(OC[C@@]56CCCN5C[C@H](F)C6)nc4c3F)c12 [Example 111, 4-((7-(8-ethyl-7-fluoro-3-hydroxynaphthalen-1-yl)-8-fluoro-2-(((2R,7aS)-2-fluorotetrahydro-1H-pyrrolizin-7a(5H)-yl)methoxy)pyrido[4,3-d]pyrimidin-4-yl)amino)-1-(3-methyl-1H-pyrazol-1-yl) butan-1-one]
3150 | 137 | 31 | 78 | 110 | CCc1c(F)ccc2cc(O)cc(-c3ncc4c(N5CCC(CC(=O)n6ccc(C)n6)C5)nc(OC[C@@]56CCCN5C[C@H](F)C6)nc4c3F)c12 (stereo partly drawn) [Example 113, 2-(1-(7-(8-ethyl-7-fluoro-3-hydroxynaphthalen-1-yl)-8-fluoro-2-(((2R,7aS)-2-fluorotetrahydro-1H-pyrrolizin-7a(5H)-yl)methoxy)pyrido[4,3-d]pyrimidin-4-yl)pyrrolidin-3-yl)-1-(3-methyl-1H-pyrazol-1-yl) ethan-1-one]
7830 | 776 | 664 | 1180 | > 10000 | CCc1c(F)ccc2cc(O)cc(-c3ncc4c(N5C[C@@H]6[C@H](C5)[C@@H]6C(=O)n5ccc(C)n5)nc(OC[C@@]56CCCN5C[C@H](F)C6)nc4c3F)c12 [Example 114, ((1R,5S,6R)-3-(7-(8-ethyl-7-fluoro-3-hydroxynaphthalen-1-yl)-8-fluoro-2-(((2R,7aS)-2-fluorotetrahydro-1H-pyrrolizin-7a(5H)-yl)methoxy)pyrido[4,3-d]pyrimidin-4-yl)-3-azabicyclo[3.1.0]hexan-6-yl)(3-methyl-1H-pyrazol-1-yl)methanone]

From US20260356856A1, “KRAS G12S AND G12C INHIBITORS” (MIRATI THERAPEUTICS, INC., priority 2023, published 2026)
